Measurements reported in patent US20020156265A1, “DNA encoding a GABABR2 polypeptide and uses thereof” (priority 1998, published 2002).
Entries after “also recorded” stand apart in the source; their conditions may differ. Read-outs that look alike come from different tables or passages of the source. Values belong to the compound of their own block, whether it stands above or below them.

How the values were obtained:
GABABR1b/GABABR2 [1] = target: T1, GABABR1b/GABABR2 (Rattus norvegicus, UniProt Q9Z0U4); experiment: GIRK currents in HEK-293 cells transiently transfected with GABABR1b/GABABR2 + GIRKs (whole-cell patch clamp); format: cell-based; design: ligated to a PCR fragment containing the missing base pairs to obtain the full length clone; expressed in transfected cells; conditions: HEK-293 doubly transfected cells; CGP55845 at 1 μM, Ba++ 100 μM
T1 sequence (Q9Z0U4 1-844 isoform Q9Z0U4-3, one chain of several): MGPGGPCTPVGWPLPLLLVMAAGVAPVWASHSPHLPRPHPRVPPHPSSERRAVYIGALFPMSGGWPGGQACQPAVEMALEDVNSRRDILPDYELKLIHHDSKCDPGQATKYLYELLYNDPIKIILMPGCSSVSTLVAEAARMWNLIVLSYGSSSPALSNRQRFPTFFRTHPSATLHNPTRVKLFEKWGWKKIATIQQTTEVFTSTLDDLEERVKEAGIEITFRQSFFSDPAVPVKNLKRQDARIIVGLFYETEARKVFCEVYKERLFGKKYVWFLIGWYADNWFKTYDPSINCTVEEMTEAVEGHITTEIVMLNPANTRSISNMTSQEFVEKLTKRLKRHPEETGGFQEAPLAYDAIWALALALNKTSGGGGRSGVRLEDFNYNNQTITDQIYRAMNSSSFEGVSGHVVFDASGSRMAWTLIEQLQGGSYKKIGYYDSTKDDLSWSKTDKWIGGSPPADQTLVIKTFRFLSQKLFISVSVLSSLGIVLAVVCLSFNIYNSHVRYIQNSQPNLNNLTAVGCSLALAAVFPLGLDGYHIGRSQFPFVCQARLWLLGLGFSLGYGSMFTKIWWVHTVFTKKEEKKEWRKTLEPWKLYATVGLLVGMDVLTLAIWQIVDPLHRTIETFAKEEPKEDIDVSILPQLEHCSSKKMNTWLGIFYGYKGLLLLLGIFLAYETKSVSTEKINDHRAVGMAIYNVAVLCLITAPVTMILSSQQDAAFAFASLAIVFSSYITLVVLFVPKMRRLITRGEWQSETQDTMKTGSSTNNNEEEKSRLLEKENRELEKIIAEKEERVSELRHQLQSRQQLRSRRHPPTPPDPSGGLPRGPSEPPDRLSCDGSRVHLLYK

[2] = rhesus monkeys; cited from earlier work
[3] = aged rats; cited from earlier work
GABABR1 = GABABR1 (Rattus norvegicus, UniProt Q9Z0U4); experiment: Radioligand binding, [3H]-CGP54626, membranes of COS-7 or HEK293 cells expressing GABABR1; conditions: for pKi: Displacement of [3H]-CGP54626 from COS-7 cells expressing GABABR1
Sequence of GABABR1 (Q9Z0U4 1-844 isoform Q9Z0U4-3): as the sequence (Q9Z0U4 1-844 isoform Q9Z0U4-3, one chain of several) above

GABABR1b/GABABR2 [4] = target: T1, GABABR1b/GABABR2; experiment: GIRK currents in Xenopus oocytes expressing GABABR1b/GABABR2 + GIRKs (voltage clamp); format: cell-based; design: ligated to a PCR fragment containing the missing base pairs to obtain the full length clone; linearized DNA plasmids containing the complete coding region of the gene; expressed in transfected cells; host or cells: Xenopus laevis oocytes, mRNA injection; conditions: for pKB: GABABR1 + GABABR2, oocytes, antagonist, measured using GABA as agonist, n = 4-6 oocytes; for Shift of the GABA concentration-response curve: CGP55845 at 50 nM, CGP54626 at 5 μM, FIG. 15B
Method: Human heart cDNA was used as template together with the primers
Dual electrode voltage clamp (“GeneClamp”, Axon Instruments Inc., Foster City, Calif.) is performed using 3 M KCl-filled glass microelectrodes having resistances of 1-3 Mohms. […] Experiments are carried out at room temperature.
Fits were made with a Marquardt-Levenberg non-linear least-squares curve fitting algorithm.

GABABR1/R2 = GABABR1/R2 (Rattus norvegicus, UniProt Q9Z0U4); experiment: Radioligand binding, membranes from cells co-transfected with GABABR1/R2
Sequence of GABABR1/R2 (Q9Z0U4 1-844 isoform Q9Z0U4-3, one chain of several): as above

rat GABABR1/rat GABABR2 = rat GABABR1/rat GABABR2 (Rattus norvegicus, UniProt Q9Z0U4); experiment: Microphysiometry (extracellular acidification) in CHO cells co-expressing rat GABABR1/rat GABABR2; conditions: 100 nM CGP55845, pretreatment with PTX
Sequence of rat GABABR1/rat GABABR2 (Q9Z0U4 1-844 isoform Q9Z0U4-3, one chain of several): as above

GABABR2 = target: T2, GABABR2 (Rattus norvegicus, UniProt O88871); experiment: Radioligand binding, membranes of HEK293 or COS-7 cells expressing GABABR2
T2 sequence (O88871 41-940): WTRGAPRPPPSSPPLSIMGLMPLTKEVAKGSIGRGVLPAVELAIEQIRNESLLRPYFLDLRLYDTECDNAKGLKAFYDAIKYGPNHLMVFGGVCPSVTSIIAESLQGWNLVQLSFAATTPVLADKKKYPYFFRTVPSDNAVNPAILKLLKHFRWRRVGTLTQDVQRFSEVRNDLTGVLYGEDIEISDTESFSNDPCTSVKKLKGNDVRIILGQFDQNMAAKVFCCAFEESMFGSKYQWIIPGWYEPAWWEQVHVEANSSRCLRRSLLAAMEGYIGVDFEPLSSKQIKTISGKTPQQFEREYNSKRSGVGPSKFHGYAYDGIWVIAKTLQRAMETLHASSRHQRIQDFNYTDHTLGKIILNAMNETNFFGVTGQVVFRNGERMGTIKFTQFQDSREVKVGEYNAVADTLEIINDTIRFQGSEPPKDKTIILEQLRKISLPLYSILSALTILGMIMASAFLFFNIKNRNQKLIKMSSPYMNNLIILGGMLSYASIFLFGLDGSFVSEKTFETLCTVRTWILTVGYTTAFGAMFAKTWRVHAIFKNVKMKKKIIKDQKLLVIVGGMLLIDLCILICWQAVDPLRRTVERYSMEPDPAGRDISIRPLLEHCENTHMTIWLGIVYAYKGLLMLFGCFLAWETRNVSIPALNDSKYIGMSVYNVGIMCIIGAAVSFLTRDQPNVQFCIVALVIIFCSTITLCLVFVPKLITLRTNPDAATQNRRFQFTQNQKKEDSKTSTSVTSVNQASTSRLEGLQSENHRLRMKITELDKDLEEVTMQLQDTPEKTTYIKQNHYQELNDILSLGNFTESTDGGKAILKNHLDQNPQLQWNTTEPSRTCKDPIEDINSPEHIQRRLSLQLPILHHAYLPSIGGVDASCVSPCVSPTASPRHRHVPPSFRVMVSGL

[5] = rat, in vivo; cited from earlier work
GABA receptors = conditions: in vivo; cited from earlier work
rat GABABR2 (rat) [6] = target: rat GABABR2 (rat) (UniProt O88871); experiment: cell-based or functional assay
rat GABABR2 (rat) [7] = target: rat GABABR2 (rat) (UniProt O88871); experiment: cell-based or functional assay; remark: listed apart in the source

Compound: [Ba+2] [Ba^++]
- Block of GABA-elicited currents (GABABR1b/GABABR2 [1]): completely blocked

Compound: CCCCP(=O)(O)CCCN [CGP36742]
- Performance in conditioned spatial color task [2]: improve
- Learning performance [3]: improve learning performance

Compound: C[C@H](NC[C@H](O)CP(=O)(O)CC1CCCCC1)c1ccc(Cl)c(Cl)c1 [CGP54626]
- pKi (GABABR1): 8.95
- pKB (GABABR1b/GABABR2 [4]): 7.48
- Shift of the GABA concentration-response curve (GABABR1b/GABABR2 [4]; oocytes): Right-ward shifts
- Binding profile compared with GABABR1 alone (GABABR1/R2): not different from those transfected with GABABR1 alone

- pKi (GABABR1): 8.7
- pKB (GABABR1b/GABABR2 [4]): 8.60
- Block of currents stimulated by GABA (GABABR1b/GABABR2 [4]; oocytes, CGP55845 1 μM, reversible): completely blocked
- Shift of the GABA concentration-response curve (GABABR1b/GABABR2 [4]; oocytes): Right-ward shifts
- Block of baclofen-stimulated acidification response (rat GABABR1/rat GABABR2): blocked
Compound: C[C@H](NC[C@H](O)CP(=O)(O)Cc1ccccc1)c1ccc(Cl)c(Cl)c1 [CGP55845]
- Binding profile compared with GABABR1 alone (GABABR1/R2): not different from those transfected with GABABR1 alone
- Block of GABA-elicited currents (GABABR1b/GABABR2 [1]): completely blocked; also recorded: abolished

Compound: CC1(C)CO[C@@H](CC(=O)O)CN1 [SCH-50911]
- Binding profile compared with GABABR1 alone (GABABR1/R2): not different from those transfected with GABABR1 alone

Compound: C[C@H](NC[C@H](O)CP(=O)(O)CC1CCCCC1)c1ccc(Cl)c(Cl)c1 [[^3H]-CGP54626]
- Labeling of membranes by radioligand (GABABR1; HEK293 or COS-7 cells expressing GABABR1): labeled
- Labeling of membranes by radioligand (GABABR2): not those expressing GABABR2

Compound: NCC(CC(=O)O)c1ccc(Cl)cc1 (stereo not drawn) [baclofen]
- Reinforcing effects of cocaine [5]: attenuate the reinforcing effects of cocaine

Compound: NCC(CP(=O)(O)O)c1ccc(Cl)cc1 (stereo not drawn) [phaclofen]
- Dopamine release in the ventral pallidum (GABA receptors): increased dopamine release

Compound: pertussis toxin
- Effect on GABA-stimulated currents (GABABR1b/GABABR2 [4]; oocytes injected with pertussis toxin 2 ng/oocyte 6 h before voltage clamping): abolished
- Block of baclofen-stimulated acidification response (rat GABABR1/rat GABABR2): blocked

- K+ (GIRK) currents in response to 100 µM GABA, HEK-293 cells (rat GABABR2 (rat) [6]): 1050 pA
Compound: rat GABABR1a (from UniProt Q9Z0U4 20-960) (receptor)

- Magnitude of GIRK currents stimulated by GABA, HEK-293, mean (pA) (rat GABABR2 (rat) [6]): 658 pA
- Magnitude of GIRK currents stimulated by GABA, oocytes, mean (nA) (rat GABABR2 (rat) [6]): 1400 nA
- agonist-evoked extracellular acidification rate, microphysiometer, co-transfected CHO cells (rat GABABR2 (rat) [6]): 9 fold
- Magnitude of GIRK currents stimulated by GABA, HEK-293, mean (pA) (rat GABABR2 (rat) [7]): 470 pA
- Magnitude of GIRK currents stimulated by GABA, oocytes, mean (nA) (rat GABABR2 (rat) [7]): 832 nA
Compound: rat GABABR1b (from UniProt Q9Z0U4 164-960) (receptor)
